Laboratory results as given in patent US20200000772A1, “CENICRIVIROC COMBINATION THERAPY FOR THE TREATMENT OF FIBROSIS” (Tobira Therapeutics, Inc., priority 2014, published 2020).
Entries after “also recorded” stand apart in the source; their conditions may differ.

Legend:
HIV-1 infected subjects = experiment: Study 202 efficacy and tolerability; format: in vivo, human; settings: CVC 100 mg and 200 mg for up to 48 weeks, 115 subjects
[1] = tested on: HIV-1 infected adult subjects; experiment: Study 202 biomarkers of inflammation; format: in vivo, human
Protocol: As an exploratory analysis, levels of inflammation biomarkers MCP-1, sCD14, high sensitivity C-reactive protein [hs-CRP], interleukin-6 [IL-6], D-dimer, and fibrinogen) were measured. Baseline values and changes from baseline at Week 24 and Week 48 of MCP-1, sCD14, hs-CRP, IL-6, D-dimer, and fibrinogen are summarized in Table 22.
The sCD14 samples were originally analyzed in 2 separate batches: Batch 1 included samples leading up to the Week 24 primary analysis and Batch 2 included Week 32 and Week 48 (end of study) samples. A repeat analysis of archived samples all analyzed in one batch was conducted for consistency in analysis across time points. To control for the effects of covariates, a linear mixed-model repeated-measures analysis was conducted on the changes from baseline in sCD14 (analysis dated September 2013).

[2] = CVC plasma exposures, healthy volunteers vs HIV-infected subjects; format: in vivo, human; settings: same dosing conditions; Studies 652-1-111, 652-1-110, 652-2-202
[3] = tested on: renal fibrosis induced by unilateral ureter occlusion (UUO); experiment: Mouse UUO model of renal fibrosis; format: in vivo, CD-1 mice
Protocol: Test animals were allocated to weight-matched treatment groups on the day prior to the surgical procedure (Day −1). Male CD-1 mice (N=51; age, 7-8 weeks) underwent either sham surgery or total ligation of the right ureter, i.e. UUO, via aseptic laparotomy (FIG. 5). […] Another group received the anti-transforming growth factor TGF-β1 antibody, compound 1D11 (positive control) at 3 mg/kg/day from Days −1 to 4, injected intraperitoneally once daily, and vehicle control from Days 0 to 5. […] On Day 5, animals were anaesthetised, blood and tissues were collected prior to sacrifice.
Study endpoints included: a) body and kidney weights; b) fibrosis in obstructed kidney evaluated via histological quantitative image analysis of picrosirius red staining (ten images/depth/kidney obtained and assessed in a blinded fashion using light microscopy [at 200×] to enable sampling of 60-70% of the renal cortical area) and quantified by a composite Collagen Volume Fraction (CVF [% total area imaged]) score expressed as the average positive stain across three anatomically distinct ([…] apart) tissue sections, or depths, from the obstructed kidney; c) hydroxyproline content of frozen renal cortical tissue biopsies as assessed by biochemical analyses; d) mRNA expression of profibrotic and inflammatory biomarkers (including MCP-1, Collagen 1a1, Collagen 3a1, TGF-β1, Fibronectin-1, α-smooth muscle actin (α-SMA) and connective tissue growth factor-1 (CTGF-1); assessed via Luminex® (Life Technologies™, Carlsbad, Calif., USA) assay with relative expression normalised to HPRT (hypoxanthine phosphoribosyltransferase).
Data are expressed as mean±standard error of mean (SEM). Statistical analyses were performed using GraphPad Prism® (GraphPad Software, Inc., San Diego, Calif., USA). Treatment differences between sham-surgery+vehiclecontrol and UUO+vehicle-control groups, and between UUO+vehicle-control and UUO+compound-1D1 (positive control) groups, were analysed by unpaired t-Test. Treatment differences between UUO+vehicle-control and CVC-dose groups were analysed by one-way ANOVA (analysis of variance) with Dunnett's test (post-hoc).

[4] = CVC 7 and 20 mg/kg/day, compound 1D11, vs UUO+vehicle-control

## CCCCOCCOc1ccc(-c2ccc3c(c2)/C=C(/C(=O)Nc2ccc([S@@+]([O-])Cc4cncn4CCC)cc2)CCCN3CC(C)C)cc1 [CVC, (S)-8-[4-(2-Butoxyethoxy)phenyl]-1-isobutyl-N-(4-{[(1-propyl-1H-imidazol-5-yl)methyl]sulfinyl}phenyl)-1,2,3,4-tetrahydro-1-benzazocine-5-carboxamide]
HIV-1 infected subjects
  tolerability in HIV-1 infected subjects: generally well tolerated; also recorded: effective and well tolerated
[1]; CVC 100 mg
  D-dimer Changes from baseline at Week 24, Mean: -32 ng/mL
  D-dimer Changes from baseline at Week 24, Median: -1.0 ng/mL
  D-dimer Changes from baseline at Week 48, Mean: -41 ng/mL
  D-dimer Changes from baseline at Week 48, Median: -1.0 ng/mL
  Fibrinogen Changes from baseline at Week 24, Mean: -3 mg/dL
  Fibrinogen Changes from baseline at Week 24, Median: -14 mg/dL
  Fibrinogen Changes from baseline at Week 48, Mean: 11 mg/dL
  Fibrinogen Changes from baseline at Week 48, Median: 15 mg/dL
  IL-6 Changes from baseline at Week 24, Mean: 0.42 pg/mL
  IL-6 Changes from baseline at Week 24, Median: 0.00 pg/mL
  IL-6 Changes from baseline at Week 48, Mean: 0.29 pg/mL
  IL-6 Changes from baseline at Week 48, Median: 0.00 pg/mL
  MCP-1 Changes from baseline at Week 24, Mean: 493 pg/mL
  MCP-1 Changes from baseline at Week 24, Median: 429 pg/mL
  MCP-1 Changes from baseline at Week 48, Mean: 636 pg/mL
  MCP-1 Changes from baseline at Week 48, Median: 523 pg/mL
  hs-CRP Changes from baseline at Week 24, Mean: -0.16 mg/dL
  hs-CRP Changes from baseline at Week 24, Median: -0.03 mg/dL
  hs-CRP Changes from baseline at Week 48, Mean: -0.08 mg/dL
  hs-CRP Changes from baseline at Week 48, Median: -0.01 mg/dL
[1]; CVC 100 mg and 200 mg, EFV, up to Week 48
  plasma MCP-1 over time: dose-response was observed with CVC in increases over time
[1]; CVC 100 mg, original values
  sCD14 Changes from baseline Week 32, Mean: 110000 pg/mL
  sCD14 Changes from baseline Week 32, Median: 120000 pg/mL
  sCD14 Changes from baseline at Week 12, Mean: -140000 pg/mL
  sCD14 Changes from baseline at Week 12, Median: -160000 pg/mL
  sCD14 Changes from baseline at Week 24, Mean: -190000 pg/mL
  sCD14 Changes from baseline at Week 24, Median: -180000 pg/mL
  sCD14 Changes from baseline at Week 48, Mean: 100000 pg/mL
  sCD14 Changes from baseline at Week 48, Median: 100000 pg/mL
[1]; CVC 200 mg
  D-dimer Changes from baseline at Week 24, Mean: -64 ng/mL
  D-dimer Changes from baseline at Week 24, Median: -50 ng/mL
  D-dimer Changes from baseline at Week 48, Mean: -70 ng/mL
  D-dimer Changes from baseline at Week 48, Median: -50 ng/mL
  Fibrinogen Changes from baseline at Week 24, Mean: -7 mg/dL
  Fibrinogen Changes from baseline at Week 24, Median: -8 mg/dL
  Fibrinogen Changes from baseline at Week 48, Mean: -10 mg/dL
  Fibrinogen Changes from baseline at Week 48, Median: -13 mg/dL
  IL-6 Changes from baseline at Week 24, Mean: 0.81 pg/mL
  IL-6 Changes from baseline at Week 24, Median: 0.00 pg/mL
  IL-6 Changes from baseline at Week 48, Mean: -0.04 pg/mL
  IL-6 Changes from baseline at Week 48, Median: 0.00 pg/mL
  MCP-1 Changes from baseline at Week 24, Mean: 753 pg/mL
  MCP-1 Changes from baseline at Week 24, Median: 695 pg/mL
  MCP-1 Changes from baseline at Week 48, Mean: 900 pg/mL
  MCP-1 Changes from baseline at Week 48, Median: 756 pg/mL
  hs-CRP Changes from baseline at Week 24, Mean: -0.07 mg/dL
  hs-CRP Changes from baseline at Week 24, Median: -0.04 mg/dL
  hs-CRP Changes from baseline at Week 48, Mean: -0.18 mg/dL
  hs-CRP Changes from baseline at Week 48, Median: -0.04 mg/dL
[1]; CVC 200 mg, original values
  sCD14 Changes from baseline Week 32, Mean: 20000 pg/mL
  sCD14 Changes from baseline Week 32, Median: -20000 pg/mL
  sCD14 Changes from baseline at Week 12, Median: -210000 pg/mL
  sCD14 Changes from baseline at Week 24, Mean: -230000 pg/mL
  sCD14 Changes from baseline at Week 24, Median: -190000 pg/mL
  sCD14 Changes from baseline at Week 48, Mean: -40000 pg/mL
  sCD14 Changes from baseline at Week 48, Median: -40000 pg/mL
[1]; both CVC treatment arms, EFV arm
  sCD14 over 48 weeks of treatment (linear mixed-model analysis of repeat sCD14 analysis): decrease
[2]
  CVC plasma exposures in non-HIV infected healthy volunteers compared to HIV-infected subjects: higher
[3]; CVC 7 mg/kg/day oral, compound 1D11 3 mg/kg/day i.p., Day 5
  effect on body weight: no effect
[3]; CVC 20 mg/kg/day, Day 5
  decrease in body weight relative to UUO+vehicle-control: 5%
[3]; CVC 100 mg/kg/day group (N=9)
  tolerability after UUO surgery: terminated early due to moribundity
[3]; CVC 7 and 20 mg/kg/day
  effect on UUO-induced increases in obstructed kidney hydroxyproline content: Neither dose of CVC tested affected
[3]; CVC 7 and 20 mg/kg/day, compound 1D11 3 mg/kg/day, vs UUO+vehicle-control
  effects on obstructed or contralateral kidney weight or kidney weight index: No significant treatment effects
[3]; [4]
  Collagen 1a1, Collagen 3a1, TGF-β1 and Fibronectin-1 mRNA expression in obstructed kidney: attenuated UUO-induced increases
  obstructed kidney cortical MCP-1, α-SMA and CTGF-1 mRNA expression: did not have significant effects
